Test results: patent US12098145B2 (Libra Therapeutics, Inc., priority 2022, dated 2024)
Read-outs that look alike come from different tables or passages of the source.

Target: T1, TRPML1 (Homo sapiens, UniProt Q9GZU1)
T1 construct: expressed in transfected cells; host or cells: HEK T-REx cells stably expressing GCaMP6f and TRPML1
Assay: Cellular TRPML1 assay (FLIPR, GCaMP6f calcium read-out)
Format: cell-based
Method in brief: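 Read-out is GCaMP6f fluorescence over 300 s after compound addition in Ca2+-free Tyrode's buffer, final DMSO 0.5%, on FLIPR Tetra. Cells are HEK T-REx stably co-expressing the indicator and TRPML1, plated 24 h earlier in Optimem + 0.5% FBS and pre-incubated ~10 min at room temperature.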

[1] = HEKT-REx/GCaMP6f/TRPML1 cells, FLIPR TETRA, kinetic response over 300 seconds, read-out: TRPML1 FLIPR pEC50 (converted)

T1 sequence (Q9GZU1 whole entry): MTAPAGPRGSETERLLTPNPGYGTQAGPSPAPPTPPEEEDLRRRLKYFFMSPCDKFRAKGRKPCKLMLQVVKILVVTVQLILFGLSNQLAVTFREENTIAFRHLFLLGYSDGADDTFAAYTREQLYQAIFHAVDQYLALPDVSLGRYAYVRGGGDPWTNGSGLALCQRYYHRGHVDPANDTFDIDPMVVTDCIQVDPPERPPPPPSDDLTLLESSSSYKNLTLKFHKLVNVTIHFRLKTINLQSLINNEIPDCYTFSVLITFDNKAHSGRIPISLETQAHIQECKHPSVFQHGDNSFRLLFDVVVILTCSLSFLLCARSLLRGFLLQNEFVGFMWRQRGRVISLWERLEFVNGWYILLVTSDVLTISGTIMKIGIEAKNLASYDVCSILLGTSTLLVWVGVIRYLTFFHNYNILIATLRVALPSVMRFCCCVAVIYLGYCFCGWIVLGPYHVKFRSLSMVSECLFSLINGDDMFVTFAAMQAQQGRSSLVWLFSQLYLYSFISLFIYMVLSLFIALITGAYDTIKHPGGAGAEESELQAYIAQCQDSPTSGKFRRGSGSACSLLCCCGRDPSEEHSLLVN

EC50 [1] [nM] | Compound | EC50 [nM]
1000 to 10000 | CCC1(CC)CN(c2nc(C(=O)Nc3cc(C)c(O[C@@H]4C[C@@H]5C[C@@H]5C4)c(F)c3)c(CN3CCC3)o2)C1 [Example 297, 5-(azetidin-1-ylmethyl)-N-(4-(cis-bicyclo[3.1.0]hexan-3-yloxy)-3-fluoro-5-methylphenyl)-2-(3,3-diethylazetidin-1-yl)oxazole-4-carboxamide] | –
1000 to 10000 | CCC1(CC)CN(c2nc(C(=O)Nc3cc(C)c(O[C@@H]4C[C@@H]5C[C@@H]5C4)c(F)c3)c(CN3CCCC3)o2)C1 [Example 298, N-(4-(cis-bicyclo[3.1.0]hexan-3-yloxy)-3-fluoro-5-methylphenyl)-2-(3,3-diethylazetidin-1-yl)-5-(pyrrolidin-1-ylmethyl)oxazole-4-carboxamide] | –
1000 to 10000 | CCC1(CC)CN(c2nc(C(=O)Nc3cc(F)c(O[C@@H]4C[C@@H]5C[C@@H]5C4)c(F)c3)c(CN3CCC3)o2)C1 [Example 300, 5-(azetidin-1-ylmethyl)-N-(4-(cis-bicyclo[3.1.0]hexan-3-yloxy)-3,5-difluorophenyl)-2-(3,3-diethylazetidin-1-yl)oxazole-4-carboxamide] | –
1000 to 10000 | Cc1cc(NC(=O)c2nc(N3CCCC3)oc2CN2CCC2)cc(F)c1O[C@@H]1C[C@@H]2C[C@@H]2C1 [Example 305, 5-(azetidin-1-ylmethyl)-N-(4-(cis-bicyclo[3.1.0]hexan-3-yloxy)-3-fluoro-5-methylphenyl)-2-(pyrrolidin-1-yl)oxazole-4-carboxamide] | –

More lines, now with the values behind:

Compound | EC50 [1] [nM] | EC50 [nM]
CCC1(CC)CN(c2nc(C(=O)Nc3ccc(O[C@@H]4C[C@@H]5C[C@@H]5C4)c(O)c3)c(CC(F)(F)F)o2)C1 [Example 270, N-(4-(cis-bicyclo[3.1.0]hexan-3-yloxy)-3-hydroxyphenyl)-2-(3,3-diethylazetidin-1-yl)-5-(2,2,2-trifluoroethyl)oxazole-4-carboxamide] | 1000 to 10000 | –
CCc1oc(N2CC(C)(OC)C2)nc1C(=O)Nc1cc(O)c(OC2CC3C[C@@H]3C2)c(Cl)c1 (stereo partly drawn) [Example 271, N-(4-(cis-bicyclo[3.1.0]hexan-3-yloxy)-3-chloro-5-hydroxyphenyl)-5-ethyl-2-(3-methoxy-3-methylazetidin-1-yl)oxazole-4-carboxamide] | 1000 to 10000 | –
CCC1(CC)CN(c2nc(C(=O)Nc3cc(F)c(O[C@@H]4C[C@@H]5C[C@@H]5C4)c(F)c3)c(C)o2)C1 [Example 273, N-(4-(cis-bicyclo[3.1.0]hexan-3-yloxy)-3,5-difluorophenyl)-2-(3,3-diethylazetidin-1-yl)-5-methyloxazole-4-carboxamide] | 10 to 1000 | –
CCCc1oc(N2CCCC2)nc1C(=O)Nc1cc(F)c(O[C@@H]2C[C@@H]3C[C@@H]3C2)c(F)c1 [Example 274, N-(4-(cis-bicyclo[3.1.0]hexan-3-yloxy)-3,5-difluorophenyl)-5-propyl-2-(pyrrolidin-1-yl)oxazole-4-carboxamide] | 10 to 1000 | –
CCC1(OC)CN(c2nc(C(=O)Nc3cc(C)c(N4C5CCCC4CC5)c(F)c3)c(CCF)o2)C1 [Example 291, N-(4-(8-azabicyclo[3.2.1]octan-8-yl)-3-fluoro-5-methylphenyl)-2-(3-ethyl-3-methoxyazetidin-1-yl)-5-(2-fluoroethyl)oxazole-4-carboxamide] | – | 10 to 1000
CCC1(CC)CN(c2nc(C(=O)Nc3cc(C)c(NC4CC5CC(C5)C4)c(F)c3)c(CCF)o2)C1 (centres unmarked) [Example 292, N-(4-(bicyclo[3.1.1]heptan-3-ylamino)-3-fluoro-5-methylphenyl)-2-(3,3-diethylazetidin-1-yl)-5-(2-fluoroethyl)oxazole-4-carboxamide] | 1000 to 10000 | –
CCC1(CC)CN(c2nc(C(=O)Nc3cc(F)c(O[C@@H]4C[C@@H]5C[C@@H]5C4)c(F)c3)c(CN(C)C)o2)C1 [Example 301, N-(4-(cis-bicyclo[3.1.0]hexan-3-yloxy)-3,5-difluorophenyl)-2-(3,3-diethylazetidin-1-yl)-5-((dimethylamino)methyl)oxazole-4-carboxamide] | 1000 to 10000 | –
